The source of these data is ChEMBL document CHEMBL4311950, “Hip To Be Square: Oxetanes as Design Elements To Alter Metabolic Pathways” (J Med Chem, 2019).

Molecules are shown by their SMILES. ≈ marks a conversion by molar mass, not a printed value.

Data set [1] can be described thus: physchem. As to conditions: buffer, pH 7.4.
Description: Aqueous solubility of the compound in pH 7.4 HBSS buffer HPLC-MS analysis
Data set [2] can be described thus: in vitro. The following applies: human, hepatocytes.
Description: Intrinsic clearance in human hepatocytes assessed per million cells at 50 uM in presence of NADPH by HPLC-MS analysis
Data set [3] can be described thus: physchem. As to conditions: pH 2.3.
Description: Dissociation constant, pKa of compound at pH 2.3 to 10.8 by pressure assisted capillary electrophoresis-MS analysis
A short description of data set [4]: physchem. The following applies: octanol/water, pH 7.4.
Description: Octanol-water distribution coefficient, log D of the compound at pH 7.4 by RP-HPLC analysis
Data set [5] in a line: in vitro. The following applies: human, liver microsomes. Background: Liver microsomes are a subcellular fraction often used to study metabolism.
Description: Intrinsic clearance in human liver microsomes at 50 uM in presence of NADPH by HPLC-MS analysis

In general, solubility refers to the dissolved amount per volume that the medium holds. By hepatocyte CLint is commonly meant the rate of metabolic loss divided by the concentration. The low end stands for slow turnover, the high end for rapid turnover. `COc1ccc(-c2nnc(C(=O)N3CC(Oc4ccc(CN5CC6(CCCO6)C5)cc4)C3)o2)cc1`: the concentration in solution in “physchem [1]” (solubility) was 495 µM (≈ 236 µg/mL). For the same molecule, the hepatocyte CLint at 50 µM in “in vitro [2]” stood at 10.4 µL/min/1e6 cells.
For orientation: pKa means the pH at which an ionisable group is half protonated. `COc1ccc(-c2nnc(C(=O)N3CC(Oc4ccc(CN5CCCC56COC6)cc4)C3)o2)cc1`: the solubility in the data set “physchem [1]” came to 3 µM (≈ 1.43 µg/mL). Moreover, the pKa in “physchem [3]” was found to be 6. The hepatocyte CLint at 50 µM in the data set “in vitro [2]” amounted to 48.7 µL/min/1e6 cells.
By logD is commonly meant the decadic logarithm of the distribution of all forms, ionised or not, between an organic phase and buffer at a given pH. For the molecule `COc1cc(OC2CN(C(=O)c3nnc(-c4ccccc4)o3)C2)ccc1CN1CCCC12COC2`, in “physchem [1]”, the solubility was determined as 60 µM (≈ 28.6 µg/mL). This molecule showed a logD in the data set “physchem [4]” of 3.8. The pKa in the data set “physchem [3]” is 8. In “in vitro [2]”, this molecule yielded a hepatocyte CLint at 50 µM of 27.5 µL/min/1e6 cells.
For `COc1cc(CN2CCCC23COC3)ccc1OC1CN(C(=O)c2nnc(-c3ccccc3)o2)C1` the same measures were 221 µM (≈ 105 µg/mL), 3.5, 6 and 25 µL/min/1e6 cells.
In the data set “physchem [1]”, `COc1cc(CN2CCCC23COC3)ccc1OC1CN(C(=O)c2nnc(-c3ccc(C(F)F)cc3)o2)C1` displayed a solubility of 39 µM (≈ 20.5 µg/mL). In addition, the logD in the data set “physchem [4]” amounted to 3.8. The pKa in “physchem [3]” came out at 6.1. In “in vitro [2]”, the hepatocyte CLint at 50 µM amounted to 38.5 µL/min/1e6 cells.
For the molecule `COc1cc(OC2CN(C(=O)c3nnc(-c4ccc(C(F)F)cc4)o3)C2)ccc1CN1CCCC12COC2`, the solubility in the data set “physchem [1]” stood at 43 µM (≈ 22.6 µg/mL). The molecule also returned a logD in “physchem [4]” of 4.2. The molecule further registered a pKa in “physchem [3]” of 7. Besides, the hepatocyte CLint at 50 µM in the data set “in vitro [2]” worked out at 42.7 µL/min/1e6 cells.
In “physchem [1]”, `O=C(c1nnc(-c2ccccc2)o1)N1CC(Oc2ccc(CN3CC4(COC4)C3)cc2)C1` came in with a solubility of 89 µM (≈ 38.5 µg/mL). The pKa in “physchem [3]” worked out at 8. In addition, the hepatocyte CLint at 50 µM in “in vitro [2]” amounted to 6.1 µL/min/1e6 cells.
`COc1ccc(-c2nnc(C(=O)N3CC(Oc4ccc(CN5CC6(CCOC6)C5)cc4)C3)o2)cc1` registered a solubility in “physchem [1]” of 82 µM (≈ 39.1 µg/mL). In “in vitro [2]”, the hepatocyte CLint at 50 µM is 10.8 µL/min/1e6 cells.
On to `Cc1cc(OC2CN(C(=O)c3nnc(-c4ccccc4)o3)C2)ccc1CN1CCCC2(COC2)C1`, for which the logD in “physchem [4]” is 3.6. Moreover, the pKa in “physchem [3]” came to 7.6.
For orientation: microsomal CLint means the capacity of the preparation to metabolise the compound, expressed as a volume cleared per time. Low values mean slow turnover, high ones rapid turnover. As to `O=C(NC1C2CC3CC1CC(O)(C3)C2)c1cnc(OC2COC2)nc1C1CCCC1` (configuration not stated), the solubility in the data set “physchem [1]” stood at 476 µM (≈ 197 µg/mL). The same molecule registered a logD in “physchem [4]” of 1.9. This molecule also showed a pKa in “physchem [3]” of 2.6. The microsomal CLint at 50 µM in the data set “in vitro [5]” is 2.8 µL/min/mg.
As for `COc1ccc(CN2CCCC23COC3)cc1`, the solubility in “physchem [1]” was found to be 610 µM (≈ 142 µg/mL). The logD in the data set “physchem [4]” is 1.8. This molecule yielded a microsomal CLint at 50 µM in “in vitro [5]” of 8.1 µL/min/mg.
With `COc1ccc(CN2CCCC3(COC3)C2)cc1`, in “physchem [1]”, the solubility was 744 µM (≈ 184 µg/mL). Also, in the data set “physchem [4]”, the log distribution coefficient (logD) was found to be 1.5. The same molecule had a pKa in the data set “physchem [3]” of 8.08. The molecule further showed a microsomal CLint at 50 µM in “in vitro [5]” of 28.3 µL/min/mg.
Regarding `COc1ccc(-c2nnc(C(=O)N3CC(Oc4ccc(CN5CC6CC(C5)O6)cc4)C3)o2)cc1`, the concentration in solution in the data set “physchem [1]” (solubility) came to 3 µM (≈ 1.39 µg/mL). The logD in the data set “physchem [4]” is 2.9. Further, the pKa in the data set “physchem [3]” worked out at 7.3. In “in vitro [2]”, this molecule yielded a hepatocyte CLint at 50 µM of 38 µL/min/1e6 cells.
In “physchem [1]”, `O=C(NC1C2CC3CC1CC(O)(C3)C2)c1cnc(OC2COC2)nc1C1CCC1` (configuration not stated) had a solubility of 818 µM (≈ 327 µg/mL). In the data set “physchem [4]”, the logD was 1.6. In addition, the microsomal CLint at 50 µM in the data set “in vitro [5]” came to 6.1 µL/min/mg.
With `O=C(c1nnc(-c2ccccc2)o1)N1CC(Oc2ccc(CN3CC4(COC4)C3)c(Cl)c2)C1`, the concentration in solution in the data set “physchem [1]” (solubility) came to 90 µM (≈ 42 µg/mL). For the same molecule, in “physchem [4]”, the logD came to 3. Moreover, the pKa in the data set “physchem [3]” was found to be 7.7. The hepatocyte CLint at 50 µM in the data set “in vitro [2]” was 32.7 µL/min/1e6 cells.
For `O=C(c1nnc(-c2ccc(OC(F)F)cc2)o1)N1CC(Oc2ccc(CN3CC4(COC4)C3)cc2)C1`, in “physchem [1]”, the solubility was 51 µM (≈ 25.4 µg/mL). The molecule also returned a logD in the data set “physchem [4]” of 2.5. The molecule further yielded a hepatocyte CLint at 50 µM in the data set “in vitro [2]” of 27.2 µL/min/1e6 cells.
As to `O=C(NC1C2CC3CC1CC(O)(C3)C2)c1cnc(NC2COC2)nc1C1CC1` (configuration not stated), in the data set “physchem [1]”, the solubility was 580 µM (≈ 223 µg/mL). Moreover, in “physchem [4]”, the logD is 1.1. This molecule returned a pKa in the data set “physchem [3]” of 2.8. Further, in “in vitro [5]”, the microsomal CLint at 50 µM is < 2 µL/min/mg.
The corresponding values for `COc1ccc(CN2CCC3(CC2)COC3)cc1` are 750 µM (≈ 186 µg/mL), 0.8, 8.56 and 20.6 µL/min/mg.
`COc1cc(CN2CC3(COC3)C2)ccc1OC1CN(C(=O)c2nnc(-c3ccc(C(F)F)cc3)o2)C1`: the concentration in solution in the data set “physchem [1]” (solubility) came to 82 µM (≈ 42 µg/mL). The molecule also had a logD in the data set “physchem [4]” of 2.2. In the data set “physchem [3]”, the pKa worked out at 8.9. In the data set “in vitro [2]”, this molecule registered a hepatocyte CLint at 50 µM of 19.5 µL/min/1e6 cells.
The corresponding values for `COc1ccc(-c2nnc(C(=O)N3CC(Oc4ccc(CN5CC6(COC6)C5)c(C)c4)C3)o2)cc1` are 73 µM (≈ 34.8 µg/mL), 2.6, 8.2 and 17 µL/min/1e6 cells.
`COc1ccc(-c2nnc(C(=O)N3CC(Oc4ccc(CN(C)CC5(C)COC5)c(C)c4)C3)o2)cc1` registered a logD in the data set “physchem [4]” of 3. For the same molecule, in “physchem [3]”, the pKa is 8.
`COc1ccc(-c2nnc(C(=O)N3CC(Oc4ccc(CNCC5(C)COC5)cc4)C3)o2)cc1`: in the data set “physchem [1]”, the solubility worked out at 61 µM (≈ 28.3 µg/mL). The same molecule yielded a logD in “physchem [4]” of 2. The molecule further registered a pKa in “physchem [3]” of 8.2. Further, the microsomal CLint at 50 µM in “in vitro [5]” is 103 µL/min/mg.
`O=C(c1nnc(-c2ccccc2)o1)N1CC(Oc2ccc(CN3CC4(COC4)C3)cc2Cl)C1` registered a solubility in the data set “physchem [1]” of 76 µM (≈ 35.5 µg/mL). The molecule also showed a logD in “physchem [4]” of 2.7. The pKa in “physchem [3]” amounted to 7.5. Moreover, the hepatocyte CLint at 50 µM in the data set “in vitro [2]” stood at 12.4 µL/min/1e6 cells.
The corresponding values for `COc1ccc(-c2nnc(C(=O)N3CC(Oc4ccc(CN5CC6(COC6)C5)cc4C)C3)o2)cc1` are 74 µM (≈ 35.3 µg/mL), 2.5, 8.4 and 18.6 µL/min/1e6 cells.
For `O=C(c1nnc(-c2ccc(C(F)F)cc2)o1)N1CC(Oc2ccc(CN3CC4(COC4)C3)cc2)C1` the same measures were 86 µM (≈ 41.5 µg/mL), 2.4, 8.5 and 5.3 µL/min/1e6 cells.
For `O=C(NC1C2CC3CC1CC(O)(C3)C2)c1cnc(NC2COC2)nc1C1CCCC1` (configuration not stated), the solubility in “physchem [1]” was > 1820 µM. The logD in the data set “physchem [4]” stood at 2.1. In “physchem [3]”, this molecule displayed a pKa of 2.6. Moreover, in “in vitro [5]”, the microsomal CLint at 50 µM is < 2 µL/min/mg.
`O=C(c1nnc(-c2ccc(F)cc2)o1)N1CC(Oc2ccc(CN3CC4(COC4)C3)cc2)C1` had a solubility in “physchem [1]” of 735 µM (≈ 331 µg/mL). The molecule also gave a logD in the data set “physchem [4]” of 2. The molecule further displayed a pKa in the data set “physchem [3]” of 8.2. The same molecule returned a hepatocyte CLint at 50 µM in the data set “in vitro [2]” of 1.9 µL/min/1e6 cells.
For `O=C(NC1C2CC3CC1CC(O)(C3)C2)c1cnc(OC2COC2)nc1C1CC1` (configuration not stated), the concentration in solution in the data set “physchem [1]” (solubility) was 867 µM (≈ 334 µg/mL). The logD in the data set “physchem [4]” amounted to 2. In “in vitro [5]”, the microsomal CLint at 50 µM is < 2 µL/min/mg.
In the data set “physchem [1]”, `COc1ccc(CN2CC3(COC3)C2)cc1` showed a solubility of 364 µM (≈ 79.8 µg/mL). The logD in the data set “physchem [4]” is 0.4. Besides, in “physchem [3]”, the pKa stood at 8.25. In addition, the microsomal CLint at 50 µM in the data set “in vitro [5]” is < 3 µL/min/mg.
Regarding `O=C(NC1C2CC3CC1CC(O)(C3)C2)c1cnc(NC2COC2)nc1C1CCC1` (configuration not stated), in the data set “physchem [1]”, the solubility was > 2520 µM. In addition, the logD in “physchem [4]” amounted to 1.6. The molecule further returned a pKa in the data set “physchem [3]” of 2.4. Besides, the microsomal CLint at 50 µM in “in vitro [5]” was < 3.5 µL/min/mg.
In turn, `COc1ccc(-c2nnc(C(=O)N3CC(Oc4ccc(COCC5(C)COC5)cc4)C3)o2)cc1` displayed a solubility in “physchem [1]” of 3 µM (≈ 1.4 µg/mL). For the same molecule, the microsomal CLint at 50 µM in the data set “in vitro [5]” was > 300 µL/min/mg.
For `COc1cc(OC2CN(C(=O)c3nnc(-c4ccc(C(F)F)cc4)o3)C2)ccc1CN1CC2(COC2)C1`, the concentration in solution in the data set “physchem [1]” (solubility) came to 87 µM (≈ 44.6 µg/mL). Further, the logD in “physchem [4]” worked out at 2.1. For the same molecule, the pKa in “physchem [3]” stood at 8.2. In “in vitro [2]”, this molecule showed an intrinsic metabolic clearance (hepatocyte CLint) at 50 µM of 19.4 µL/min/1e6 cells.
